{"source": "patent US8748445B2", "about": "“Methods for treating glioma” (The UAB Research Foundation, priority 2004, dated 2014)", "key": {"cortical astrocytes": {"system": "cortical astrocytes", "experiment": "35S-labeled cystine uptake in cortical astrocytes", "assay_type": "cell-based", "set-up": "dose or concentration left out as unconfirmed", "details": "compared with D-54MG glioma cells (FIG. 2B)", "description": "System Xc is a glutamate-cystine exchanger and can therefore be inhibited if the outward directed gradient for glutamate is eliminated by exposure to high concentrations of extracellular glutamate. The principal hypothesis in this study is that system Xc serves as a pipeline for cellular cystine uptake, with glutamate release being an obligatory by-product. Cystine uptake is the rate-limiting step for the synthesis of GSH, which is the main intracellular antioxidant that protects cells from oxidative stress and resulting reactive oxygen species (ROS) (Jefferies et al., 2003)."}, "glioma cells [1]": {"system": "glioma cells", "experiment": "total intracellular glutathione content in glioma cells", "assay_type": "cell-based, human", "procedure": "To determine if limiting cystine uptake via system Xc reduces the total intracellular glutathione content (GSH and glutathione disulfide), intracellular glutathione concentrations were determined in the presence and absence of sulfasalazine."}, "[2]": {"system": "glioma cell lines (D-54MG, U-87MG, U-251MG and STTG1) and a primary glioma culture (GBM62)", "experiment": "growth curves of glioma cells over 5 days", "assay_type": "cell-based, human", "details": "5 days; 0.1 and 0.25 mM (S)-4-CPG, 0.25 and 0.5 mM sulfasalazine; all glioma cell lines and GBM62 (FIGS. 3A, 3B)", "procedure": "To examine whether the depletion of glutathione via inhibition of cystine uptake by system Xc affects the growth of glioma cells, growth curves for 4 glioma cell lines (D-54MG, U-87MG, U-251MG and STTG1) and a primary glioma culture (GBM62) were established.\nIn the presence of 0.25 mM (S)-4-CPG, growth of D-54MG cells indeed recovered by the addition of fourfold excess of cystine (FIG. 3E), but not with glutamate (FIG. 3D), the second substrate for system Xc."}, "[3]": {"system": "primary astrocyte cultures", "experiment": "growth of primary astrocyte cultures", "assay_type": "cell-based", "details": "(S)-4-CPG 0.25 mM and 0.5 mM (FIG. 3C); sulfasalazine data not shown"}, "[4]": {"system": "cortical neuronal cultures", "experiment": "survival of cortical neuronal cultures", "assay_type": "cell-based", "details": "(S)-4-CPG 0.25 mM and 0.5 mM (FIG. 3C); sulfasalazine data not shown"}, "D-54MG glioma cells": {"system": "D-54MG glioma cells", "experiment": "BrdU incorporation, immunocytochemical studies", "assay_type": "cell-based, human", "details": "DAPI co-staining (FIG. 4B)", "procedure": "BrdU incorporation was measured using an ELISA-based assay. D-54MG cells were grown in the presence or absence of inhibitors for 24 hours and pulsed for 2 hours with BrdU. The cells were cultured for an additional 48 hours and the amount of incorporated BrdU was measured using alkaline phosphatase conjugated to anti-BrdU antibodies. […] The inhibition of DNA synthesis was also seen in immunocytochemical studies."}, "glioma cells [5]": {"system": "glioma cells", "experiment": "cell death by flow cytometry using the Live/Dead assay kit", "assay_type": "cell-based, human", "details": "1 mM, 5 d incubation (FIG. 5E)", "procedure": "Because an accumulation of ROS can lead to apoptotic cell death, the ability of system Xc inhibitors to induce apoptosis in glioma cells was examined. […] Often apoptosis is dependent on caspase activities, so it was determined whether the system Xc inhibitors induce activated caspase-3, which is the convergent enzyme in the caspase-dependent signaling cascade. […] With 1 mM sulfasalazine, 90% of cells died over the 5 d incubation (FIG. 5E)."}, "D54-MG glioma cells [6]": {"system": "D54-MG glioma cells", "experiment": "intracranial D54-MG luciferase xenograft, bioluminescence imaging", "assay_type": "in vivo, CB-17 scid mice", "procedure": "Therefore, the effect of inhibiting system Xc in an animal model of malignant glioma was examined. In these experiments, both (S)-4-CPG or sulfasalazine were used. […] In the described in vivo experiments, human gliomas were xenografted into the cranium of either female CB-17 scid mice or nude mice, both of which are frequently used animal models for malignant gliomas. The intracranial growth of tumors was assessed using the recently developed […] methodology for visualizing tumor growth.\nIn one set of in vivo experiments, D54-MG glioma cells were stably transfected with the firefly luciferase gene under the control of the CMV promoter. One-half million cells were stereotactically implanted into the cranium of each CB-17 scid mouse. After 7 days, animals were randomized into three groups of 12 animals each. The control group received an intraperitoneal injection of 1 ml dose of saline twice daily. The two test groups received an 8 mg dose of sulfasalazine twice daily for either 1 or 3 weeks. Animals were imaged for tumor size, typically once per week, using a bioluminescence imaging system (IVIS system; Xenogen). Light emission from the tumor regions (in relative photons/second) were quantified using Living Image, version 2.20.1, software provided by Xenogen and plotted as a function of time."}, "D54-MG glioma cells [7]": {"system": "D54-MG glioma cells", "experiment": "histological markers of cell death and proliferation in tumor sections", "assay_type": "in vivo, CB-17 scid mice", "description": "To further examine effects of sulfasalazine in vivo at the cellular level, the tumor sections were examined with commonly used histological markers for cell death, including ApopTag/methyl green (FIGS. 8A and 8B) and terminal deoxynucleotidyl transferase-mediated biotinylated UTP nick end labeling (TUNEL) (FIGS. 8C and 8D), and proliferation (Ki-67) (FIGS. 8E and 8F). Multiple fields from several serial sections from two control group and two treatment group animals (see description above regarding FIG. 7A) were examined. […] Indeed, necrosis is a hallmark of grade IV gliomas and a necessary feature for their histopathological grading as such. At a higher resolution (40×), significant cell death was observed as evident from TUNEL (FIG. 8C) and caspase-3 staining (data not shown). In these figures, TUNEL staining is indicated by a lighter green color against a background of DAPI staining."}, "glioma xenograft tumors": {"system": "glioma xenograft tumors", "experiment": "tumor size by hematoxylin-eosin staining of brain sections", "assay_type": "in vivo, mice", "details": "8 mg in 1 ml saline twice per day; 30 days after tumor induction (FIGS. 7C, 7D)", "procedure": "To validate that these experiments represent, at least qualitatively, changes in tumor size, two animals each from the control and treatment groups were sacrificed at 30 days after tumor induction. Histological sections were obtained and traditional hematoxylin-eosin (H&E) staining were performed. FIGS. 7C and 7D show the results for the control group (saline treatment only) and the treatment group (8 mg sulfasalazine in 1 ml saline, twice per day)."}}, "note": "Entries after “also recorded” stand apart in the source; their conditions may differ."}
{"compound": "O=C(O)c1cc(/N=N/c2ccc(S(=O)(=O)Nc3ccccn3)cc2)ccc1O", "note": "[sulfasalazine]", "values": [{"measurement": "inhibition of cystine uptake in cortical astrocytes", "setting": "cortical astrocytes", "result": "to a significantly lesser degree; also recorded: only a limited inhibition"}, {"measurement": "intracellular glutathione concentration", "setting": "glioma cells [1]; 0.25 mM, glioma cells D-54MG, U-87MG, U-251MG and primary glioma culture GBM64 (FIG. 2F)", "result": "depleted intracellular glutathione concentration"}, {"measurement": "intracellular glutathione concentration", "setting": "glioma cells [1]; D-54MG glioma cells, sulfasalazine 50-500 μM, time and dose-dependent, after 24 h (FIG. 2D)", "result": "almost complete glutathione depletion"}, {"measurement": "growth of glioma cells", "setting": "[2]", "result": "dose-dependent growth inhibitions"}, {"measurement": "growth of primary astrocyte cultures", "setting": "[3]", "result": "Neither (S)-4-CPG (FIG. 3C) nor sulfasalazine (data not shown) affected"}, {"measurement": "survival/growth of cortical neuronal cultures", "setting": "[4]", "result": "Neither (S)-4-CPG (FIG. 3C) nor sulfasalazine (data not shown) affected"}, {"measurement": "incorporation of BrdU, immunocytochemistry", "setting": "D-54MG glioma cells", "result": "virtually abolished incorporation of BrdU"}, {"measurement": "cells died", "setting": "glioma cells [5]", "result": 90, "unit": "%"}, {"measurement": "tumor expansion (relative bioluminescence)", "setting": "D54-MG glioma cells [6]; 8 mg intraperitoneal twice daily for either 1 or 3 weeks, from day 7 (FIG. 7A)", "result": "significantly reduced"}, {"measurement": "tumor growth after retreatment", "setting": "D54-MG glioma cells [6]; retreated at day 53 for 3 days after termination of treatment (FIG. 7A)", "result": "again reduced after retreatment"}, {"measurement": "tumor necrosis (ApopTag)", "setting": "D54-MG glioma cells [7]; sulfasalazine-treated animals of FIG. 7A (FIG. 8B)", "result": "almost no evidence for necrosis"}, {"measurement": "Ki-67 index", "setting": "D54-MG glioma cells [7]; sulfasalazine-treated tumor sections, similar to control, no significant difference", "result": "approximately 15"}, {"measurement": "TUNEL labeling in tumor sections", "setting": "D54-MG glioma cells [7]; sulfasalazine-treated versus control (FIG. 8D), not statistically significant", "result": "reduced TUNEL"}, {"measurement": "caspase-3 labeling in tumor sections", "setting": "D54-MG glioma cells [7]; sulfasalazine-treated versus control, data not shown", "result": "reduced"}, {"measurement": "tumor size versus control group, H&E staining", "setting": "glioma xenograft tumors", "result": "significantly smaller"}]}
